Key:
[1] = target: T1, bovine milk xanthine oxidase (Bos taurus, UniProt P80457); experiment: Oxidation of xanthine to uric acid by xanthine oxidase in absence and presence of oxygen, spectrophotometric; assay type: biochemical; set-up: host or cells: bovine milk; settings: 50 μM guanoxabenz, 50 μM xanthine; both in the absence of oxygen (nitrogen) and in the presence of 20% oxygen
Experimental: Capacity of hydroxyguanidines to sustain oxidation of xanthine by xanthine oxidase in the absence and in the presence of oxygen. The capacity of hydroxyguanidines to sustain the oxidation of xanthine to uric acid in the absence and presence of oxygen was assayed by using a spectrophotometric method. In this method bovine milk xanthine oxidase was injected to a Helma® sealable cuvette for anaerobic applications thereby creating 1 ml of a reaction mixture that contained reagents as follows: 50 μM of a hydroxyguanidine, 50 μM xanthine, 0.05 units/ml bovine milk xanthine oxidase, 50 mM Tris and 1.5 mM EDTA; the pH of the reaction mixture being 7.5, and the temperature being 20° C. Anaerobic conditions were assured by pre-gassing all solutions used for 5-10 min, with nitrogen whereas aerobic conditions was assured by exposing the solutions to air. The rate of formation of uric acid was monitored spectrophotometrically by measuring the increase in absorbance at 295 nm (the absorption maximum for uric acid) at timed intervals. In FIG. 5 are shown examplary recordings from these tests. In this test the hydroxyguanidine was guanoxabenz.
Target sequence in this assay (P80457 whole entry): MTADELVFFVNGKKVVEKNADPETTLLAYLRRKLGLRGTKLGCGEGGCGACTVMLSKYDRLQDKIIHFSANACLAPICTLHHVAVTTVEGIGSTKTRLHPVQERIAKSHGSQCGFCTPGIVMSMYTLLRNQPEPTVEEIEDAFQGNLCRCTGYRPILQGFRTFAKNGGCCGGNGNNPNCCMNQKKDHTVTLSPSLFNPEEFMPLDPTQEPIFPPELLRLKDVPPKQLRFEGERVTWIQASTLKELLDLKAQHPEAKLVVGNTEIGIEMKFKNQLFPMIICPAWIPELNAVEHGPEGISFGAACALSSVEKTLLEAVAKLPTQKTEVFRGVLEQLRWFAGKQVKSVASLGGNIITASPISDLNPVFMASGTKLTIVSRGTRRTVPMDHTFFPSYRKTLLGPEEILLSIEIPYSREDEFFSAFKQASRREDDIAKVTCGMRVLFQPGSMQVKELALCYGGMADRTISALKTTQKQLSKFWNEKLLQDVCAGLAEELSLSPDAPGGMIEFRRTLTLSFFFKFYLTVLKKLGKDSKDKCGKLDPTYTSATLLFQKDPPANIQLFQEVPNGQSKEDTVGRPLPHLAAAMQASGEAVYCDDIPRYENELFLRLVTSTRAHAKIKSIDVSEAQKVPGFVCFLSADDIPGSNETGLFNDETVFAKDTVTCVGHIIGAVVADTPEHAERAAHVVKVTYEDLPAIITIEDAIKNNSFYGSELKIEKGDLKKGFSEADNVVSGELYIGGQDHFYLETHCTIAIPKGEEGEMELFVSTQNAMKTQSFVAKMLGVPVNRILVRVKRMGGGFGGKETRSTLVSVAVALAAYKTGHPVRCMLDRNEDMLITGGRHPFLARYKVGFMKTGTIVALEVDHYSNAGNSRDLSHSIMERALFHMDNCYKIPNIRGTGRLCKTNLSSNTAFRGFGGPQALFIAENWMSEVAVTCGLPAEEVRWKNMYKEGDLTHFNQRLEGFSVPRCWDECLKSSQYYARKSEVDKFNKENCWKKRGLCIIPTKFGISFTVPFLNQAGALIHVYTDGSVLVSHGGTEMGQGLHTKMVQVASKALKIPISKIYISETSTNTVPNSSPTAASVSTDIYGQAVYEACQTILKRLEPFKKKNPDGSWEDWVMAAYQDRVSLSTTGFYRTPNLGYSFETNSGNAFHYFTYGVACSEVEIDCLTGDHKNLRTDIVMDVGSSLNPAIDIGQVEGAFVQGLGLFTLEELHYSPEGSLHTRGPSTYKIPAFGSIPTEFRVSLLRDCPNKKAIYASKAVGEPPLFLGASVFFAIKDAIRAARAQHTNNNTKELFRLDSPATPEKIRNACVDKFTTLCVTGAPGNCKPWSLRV

[2] = target: T1, bovine milk xanthine oxidase
Target sequence in this assay (P80457 2-1332): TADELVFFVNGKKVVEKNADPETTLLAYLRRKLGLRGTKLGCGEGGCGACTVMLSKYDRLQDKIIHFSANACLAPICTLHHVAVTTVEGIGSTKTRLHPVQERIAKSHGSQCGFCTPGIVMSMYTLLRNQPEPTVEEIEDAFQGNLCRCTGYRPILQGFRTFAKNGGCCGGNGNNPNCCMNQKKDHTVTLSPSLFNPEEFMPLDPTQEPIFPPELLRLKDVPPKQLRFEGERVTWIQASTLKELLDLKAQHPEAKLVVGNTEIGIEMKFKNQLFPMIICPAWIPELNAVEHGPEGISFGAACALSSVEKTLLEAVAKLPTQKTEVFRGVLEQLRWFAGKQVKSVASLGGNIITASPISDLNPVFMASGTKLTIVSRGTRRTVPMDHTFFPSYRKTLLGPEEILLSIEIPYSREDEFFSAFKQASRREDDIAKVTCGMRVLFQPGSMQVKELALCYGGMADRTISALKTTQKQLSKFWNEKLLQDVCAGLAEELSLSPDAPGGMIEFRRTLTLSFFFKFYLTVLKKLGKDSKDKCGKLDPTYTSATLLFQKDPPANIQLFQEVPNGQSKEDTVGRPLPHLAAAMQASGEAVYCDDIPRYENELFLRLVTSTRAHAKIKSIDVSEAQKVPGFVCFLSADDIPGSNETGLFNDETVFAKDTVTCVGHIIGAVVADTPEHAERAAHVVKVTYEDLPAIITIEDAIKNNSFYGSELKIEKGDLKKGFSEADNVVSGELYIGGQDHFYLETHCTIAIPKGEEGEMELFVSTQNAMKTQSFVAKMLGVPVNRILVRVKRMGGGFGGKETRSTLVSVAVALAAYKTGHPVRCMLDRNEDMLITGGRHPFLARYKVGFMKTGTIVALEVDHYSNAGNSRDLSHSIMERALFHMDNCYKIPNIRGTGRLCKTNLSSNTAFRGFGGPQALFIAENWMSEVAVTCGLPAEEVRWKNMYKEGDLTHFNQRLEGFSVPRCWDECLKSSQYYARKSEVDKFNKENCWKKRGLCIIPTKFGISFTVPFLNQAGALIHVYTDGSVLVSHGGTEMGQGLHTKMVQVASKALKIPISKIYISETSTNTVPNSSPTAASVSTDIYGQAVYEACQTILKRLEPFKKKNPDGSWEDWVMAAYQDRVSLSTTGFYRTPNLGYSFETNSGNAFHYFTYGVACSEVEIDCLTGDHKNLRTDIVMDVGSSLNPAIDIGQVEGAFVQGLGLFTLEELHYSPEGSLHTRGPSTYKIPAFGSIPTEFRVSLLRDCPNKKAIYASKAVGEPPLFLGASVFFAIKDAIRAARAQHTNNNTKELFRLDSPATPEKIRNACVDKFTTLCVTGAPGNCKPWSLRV
Experimental: Capacity of allopurinol to inhibit the reduction of hydroxyguanidines by xanthine oxidase. […] In these tests varying amounts of guanoxabenz was added to assays yielding 150 μl final volumes and containing final concentrations 0.004 units/ml of bovine milk xanthine oxidase (Sigma, St. Louis, MO., USA), 100 μM xanthine, 20 μM allopurinol, 50 pM α2-adrenoceptors (in HT29 cell membranes), 33 mM Tris HCl, 1 mM EDTA, pH 7.5, and incubating for 1 hour at 25° C.

[3] = target: T2, crude spleen cytosol (hydroxyguanidine reducing activity) (Rattus norvegicus, UniProt P22985); experiment: Reduction of guanoxabenz to guanabenz by crude spleen cytosol, HPLC; assay type: biochemical
T2 construct: from tissue; host or cells: rat spleen (70,000 x g supernatant)
Experimental: Preparation of crude spleen cytosol. Rat spleens were homogenised (1:10 w/v) in ice-cold […] Tris, 1.5 mM EDTA, pH 7.5 with glass/Teflon homogenizer. The homogenate was centrifuged at 30,000×g for 15 min at 4° C. and stored frozen at −80° C. After thawing the supernatant was centrifuged at 70,000×g for 1 hr at 4° C. and used for the assays.
Identification of a reaction product derived from hydroxyguanidine. Crude spleen cytosol was incubated at 25° C. with 70 μM guanoxabenz (2(2,6-dichlorophenyl)methylene-N-hydroxyhydrazine carboxi-imidamide) in the presence of 25 mM Tris-HCl, 0.75 mM EDTA, the total volume being 4 ml. Aliquots of 250 μl were then withdrawn from the reaction mixture after 1, 30, 60, 90 or 240 minutes and heated in a water bath to 80° C. for 5 minutes. The sample was then centrifuged and the supernatant filtered through a 0.22 μm Millipore filter whereafter 200 μl of the filtrate was injected into a reverse phase chromatography column (Waters Symmetry C8) equilibrated in 40% methanol, 60% 10 mM Na-acetate buffer, pH 4.5. The elution speed was 0.5 ml/min and the eluted substances were detected by a UV-monitor set at 260 nm.
In FIG. 1 is shown exemplary details on the time course of appearence of the product.
Preparation of the enzymatic reaction product for NMR-analysis. To obtain enough of the product for NMR studies guanoxabenz (500 μM) was pre-incubated with the crude spleen cytosol for 1 hr. […] Total volume of the reaction mixture was 4 ml. After the incubation the reaction mixture was boiled, centrifuged and filtered, essentially as described above, and aliquots of the materials injected onto the HPLC column. […] The fractions containing the product peak were collected, pooled and lyophilized and then subjected to NMR-analysis.

[4] = target: T1, bovine milk xanthine oxidase; experiment: Hydroxyguanidine reducing activity of bovine xanthine oxidase, simplified radioligand binding assay; assay type: biochemical; settings: 100 μM xanthine versus xanthine absent
Experimental: (§1) In a simplified form of the assay the α2-adrenoceptor containing membranes and the [^3H]RX821002 radioligand were added together with the hydroxyguanidine reducing activity and the hydroxyguanidine, and the mixture then incubated for a suitable time. In this implementation of the assay the reduction of the hydroxyguanidine occurred simultaneously with the assay of the […]. Example of this variant of the assay is given in Examples 4 and 8.
(§2) Hydroxyguanidine reducing activity of bovine xanthine oxidase.
Target sequence in this assay (P80457 2-1332): as above

[5] = system: bovine milk xanthine oxidase; experiment: as above; assay type: biochemical
Experimental: as §1, §2

[6] = 70 μM guanoxabenz, 25° C., after 1 minute incubation, HPLC 260 nm
[7] = 70 μM guanoxabenz, after 1 hour

T2 sequence (P22985 whole entry): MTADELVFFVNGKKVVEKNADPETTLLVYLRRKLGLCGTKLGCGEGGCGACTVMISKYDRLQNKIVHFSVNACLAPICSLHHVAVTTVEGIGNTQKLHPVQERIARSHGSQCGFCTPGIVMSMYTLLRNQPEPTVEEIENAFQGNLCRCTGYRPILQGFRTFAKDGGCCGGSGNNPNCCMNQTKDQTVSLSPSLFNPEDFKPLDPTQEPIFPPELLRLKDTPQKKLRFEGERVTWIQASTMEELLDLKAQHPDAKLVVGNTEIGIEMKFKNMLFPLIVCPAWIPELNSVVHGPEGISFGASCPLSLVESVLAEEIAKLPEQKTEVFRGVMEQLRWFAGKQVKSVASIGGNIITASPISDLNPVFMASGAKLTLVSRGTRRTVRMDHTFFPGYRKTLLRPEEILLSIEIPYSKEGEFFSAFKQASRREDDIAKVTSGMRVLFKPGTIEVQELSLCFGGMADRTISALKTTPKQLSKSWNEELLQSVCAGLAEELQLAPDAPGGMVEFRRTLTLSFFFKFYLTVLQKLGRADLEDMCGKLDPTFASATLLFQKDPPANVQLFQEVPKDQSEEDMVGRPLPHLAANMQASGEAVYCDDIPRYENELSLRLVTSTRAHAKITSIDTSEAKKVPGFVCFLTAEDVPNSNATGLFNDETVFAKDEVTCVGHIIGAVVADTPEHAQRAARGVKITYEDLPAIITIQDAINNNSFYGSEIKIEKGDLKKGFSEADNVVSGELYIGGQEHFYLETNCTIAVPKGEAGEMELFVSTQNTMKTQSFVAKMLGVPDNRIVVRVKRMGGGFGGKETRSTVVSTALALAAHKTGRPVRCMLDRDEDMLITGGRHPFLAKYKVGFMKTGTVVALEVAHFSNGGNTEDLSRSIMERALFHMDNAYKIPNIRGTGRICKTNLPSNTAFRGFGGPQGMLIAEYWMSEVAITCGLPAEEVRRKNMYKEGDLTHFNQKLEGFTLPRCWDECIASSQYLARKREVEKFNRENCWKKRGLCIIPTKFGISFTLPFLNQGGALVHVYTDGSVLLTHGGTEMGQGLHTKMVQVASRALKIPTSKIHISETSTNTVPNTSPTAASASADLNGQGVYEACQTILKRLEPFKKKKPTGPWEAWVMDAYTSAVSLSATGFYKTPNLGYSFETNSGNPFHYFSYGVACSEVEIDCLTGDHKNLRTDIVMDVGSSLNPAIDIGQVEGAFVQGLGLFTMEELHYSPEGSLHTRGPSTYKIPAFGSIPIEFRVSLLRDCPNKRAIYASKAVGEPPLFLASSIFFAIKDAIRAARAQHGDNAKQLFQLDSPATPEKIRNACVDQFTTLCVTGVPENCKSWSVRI

N=C(NO)NN=Cc1c(Cl)cccc1Cl [Guanoxabenz, 2(2,6-dichlorophenyl)methylene-N-hydroxyhydrazine carboxi-imidamide]
rate of the formation of uric acid (absorbance at 295 nm) [1]: substantial increase | conversion of guanoxabenz to guanabenz ([2]; in the absence of allopurinol): about 88% | guanoxabenz converted to guanabenz ([2]; in the presence of allopurinol (20 μM)): none | UV-absorption corresponding to the guanabenz peak [3, 6]: 5% | UV-absorption in the guanoxabenz peak [3, 6]: 95% | guanabenz peak as part of total absorbance of the chromatograms [3, 7]: about ⅓ | guanoxabenz peak as part of total absorbance of the chromatograms [3, 7]: ⅔ | size of guanabenz and guanoxabenz peaks ([3]; 70 μM guanoxabenz, after 4 hours): about equal size | peak corresponding to guanabenz, share of UV-absorbing material (260 nm) ([3]; 500 μM guanoxabenz, 1 hr, MgCl2 (2 mM) and DTT (2 mM)): more than 99% | increase in the apparent affinity on addition of xanthine [4]: about 40 fold | guanoxabenz converted to guanabenz ([5]; in the absence of xanthine): none | conversion of guanoxabenz to guanabenz ([5]; in the presence of xanthine): about 88%

From patent US6599943B1, “Use of hydroxyguanidines” (WaPharm AB, priority 1996, dated 2003)
